This is an account of results in patent US7964531B2, “3-phenoxy-4-pyridazinol derivatives and herbicidal composition containing the same” (Mitsui Chemicals Agro, Inc., priority 2001, dated 2011).

Type in all cases: in vivo
Data set [1] concerns black nightshade. As to the kind of experiment: Test Example 5: herbicidal effects, upland (soil treatment). The conditions noted are these: after 21 days. On the procedure: (§1) Upland soil was filled in 150 cm^2 pot, and seeds of barnyardgrass, Cyperus esculentus L., velvetleaf, black nightshade, tall morningglory and corn were sowed, and grown in a greenhouse. At the next day of seeding, a predetermined chemical dosage of the wettable powder prepared in accordance with Preparation example 5 was diluted with water and applied to soil surface. After 21 days from the treatment, herbicidal effects and crop injury against corn were judged according to the following judgment standard, and the results were shown in Tables 6 to 8.
(§2) Judgment Standard • 0: Growth inhibition rate; 0 to 9% • 1: Growth inhibition rate; 10 to 19% • 2: Growth inhibition rate; 20 to 29% • 3: Growth inhibition rate; 30 to 39% • 4: Growth inhibition rate; 40 to 49% • 5: Growth inhibition rate; 50 to 59% • 6: Growth inhibition rate; 60 to 69% • 7: Growth inhibition rate; 70 to 79% • 8: Growth inhibition rate; 80 to 89% • 9: Growth inhibition rate; 90 to 98% • 10: Growth inhibition rate; 99 to 100%.

Data set [2] concerns barnyardgrass. Described as above. The conditions noted are these: after 21 days. On the procedure:
as §1, §2

In data set [3] the test system is velvetleaf. Described as above. The conditions noted are these: after 21 days. On the procedure: as §1, §2
Data set [4] has as its system tall morningglory. The description is as above. Conditions: after 21 days. On the procedure: as §1, §2
The subject of data set [5] is annual broad-leaved weeds (Lindernia spp., Rotala indica). As to the kind of experiment: Test Example 1: herbicidal effects, paddy-field pot test. The conditions noted are these: wettable powder applied 3 days after transplanting, judged after 25 days. The essentials: (§3)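 Herbicidal effect and rice injury were graded on a six-step growth-inhibition scale (0: 0–10% to 5: 91–100%) at 25 days after pot application of water-diluted wettable powder, given 3 days post-transplant under flooded greenhouse conditions.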

In data set [6] the test system is Cyperus serotinus. The data set is described as above. The conditions noted are these: wettable powder applied 3 days after transplanting, judged after 25 days. In a few lines: as §3
Data set [7] concerns barnyardgrass (Echinochloa oryzicola Vasing.). The data set is described as above. The conditions noted are these: wettable powder applied 3 days after transplanting, judged after 25 days. In a few lines: as §3
The test system of data set [8] is Scirpus joncoides. The data set is described as above. The conditions noted are these: wettable powder applied 3 days after transplanting, judged after 25 days. The essentials: as §3
In data set [9] the test system is Cyperus serotinus. As to the kind of experiment: Test Example 4: herbicidal effects of mixed wettable powder, paddy-field pot test. The conditions noted are these: no second compound, after 25 days. On the procedure: (§4) Paddy filed soil was filled in 1/5000 are Wagner pot, seeds of barnyardgrass (Echinochloa oryzicola Vasing.), Scirpus joncoides and annual broad-leaved weeds (Lindernia spp. and Rotala indica) which are awaken from dormancy were mixed at the surface layer of 1 cm. Also, tubers of Cyperus serotinus, Sagittaria pygmaea and Eleocharis kuroguwai which are awaken from dormancy were planted, and further seedlings of paddy-field rice at 2.2-leaf stage were transplanted and they were grown under the flooded condition in a greenhouse. After 3 days from the transplanting, a predetermined chemical dosage of the wettable powder prepared in accordance with Preparation example 5 was diluted with water, and applied to the pot. After 25 days, herbicidal effects and crop injury against transplanted paddy-field rice were judged according to the following judgment standard, and the results were shown in Table 5. Incidentally, “-” in the table means a composition containing no effective ingredient.
(§5) Judgment Standard • 0: Growth-inhibition rate; 0 to 15% • 1: Growth inhibition rate; 16 to 35% • 2: Growth inhibition rate; 36 to 55% • 3: Growth inhibition rate; 56 to 75% • 4: Growth inhibition rate; […] • 5: Growth inhibition rate; 96 to 100%.

Data set [10] relates to Eleocharis kuroguwai. The description is as above. The conditions noted are these: no second compound, after 25 days. On the procedure: as §4, §5
The test system of data set [11] is annual broad-leaved weeds (Lindernia spp. and Rotala indica). Described as above. Conditions: no second compound, after 25 days. On the procedure: as §4, §5
The subject of data set [12] is Sagittaria pygmaea. The description is as above. Conditions: no second compound, after 25 days. On the procedure:
as §4, §5

Data set [13] relates to barnyardgrass (Echinochloa oryzicola Vasing.). The description is as above. The conditions noted are these: no second compound, after 25 days. On the procedure: as §4, §5
The subject of data set [14] is Scirpus joncoides. The description is as above. The conditions noted are these: no second compound, after 25 days. On the procedure: as §4, §5
Data set [15] concerns transplanted paddy-field rice. As to the kind of experiment: Test Example 4: crop injury against transplanted paddy-field rice. The conditions noted are these: no second compound, after 25 days. On the procedure:
as §4, §5

The subject of data set [16] is transplanted paddy-field rice. As to the kind of experiment: Test Example 1: crop injury against transplanted paddy-field rice. Conditions: wettable powder applied 3 days after transplanting, judged after 25 days. The essentials: as §3
For data set [17], the system named is barnyardgrass. As to the kind of experiment: Test Example 2: herbicidal effects (soil treatment). Conditions: dosage 5 kg/a; soil treatment the day after seeding; judged after 21 days. The source says: (§6) Judgment Standard • 0: Growth inhibition rate; 0 to 10% • 1: Growth inhibition rate; 11 to 30% • 2: Growth inhibition rate; 31 to 50% • 3: Growth inhibition rate; 51 to 70% • 4: Growth inhibition rate; 71 to 90% • 5: Growth inhibition rate; 91 to 100%.
(§7) Upland soil was filled in 150 cm^2 pot, and seeds of barnyardgrass and indian mustard (Brassica juncea (L.) Czern. et Coss) were sowed, and grown in a greenhouse. At the next day of seeding, a predetermined chemical dosage of the wettable powder prepared in accordance with Preparation example 1 was diluted in water and applied to soil surface. After 21 days from the treatment, herbicidal effects were judged in accordance with the judgment standard of Test example 1, and the results were shown in Table 3.

Data set [18] relates to indian mustard (Brassica juncea (L.) Czern. et Coss). The data set is described as above. The conditions noted are these: dosage 5 kg/a; soil treatment the day after seeding; judged after 21 days.
Excerpt: as §6, §7

In the case of `CS(=O)(=O)c1cc(C(F)(F)F)ccc1C(=O)c1cnoc1C1CC1` [Compound D, 5-cyclopropyl-1,2-oxazol-4-yl α,α,α-trifluoro-2-mesyl-p-tolyl ketone], the “Herbicidal effects Black Nightshade” value in data set [1] (D alone 6.3 g/ha) is 5 (Growth inhibition rate; 50 to 59%); in [1] (D alone 12.5 g/ha), 9 (Growth inhibition rate; 90 to 98%); in data set [1] (D alone 25 g/ha) it was 9 (Growth inhibition rate; 90 to 98%). Besides, the “Herbicidal effects Barnyard grass” value in [2] (D alone 6.3 g/ha) is reported as 3 (Growth inhibition rate; 30 to 39%); in [2] (D alone 12.5 g/ha), 10 (Growth inhibition rate; 99 to 100%); in [2] (D alone 25 g/ha), 10 (Growth inhibition rate; 99 to 100%). Further, the “Herbicidal effects Velvetleaf” value in data set [3] (D alone 6.3 g/ha) is listed as 6 (Growth inhibition rate; 60 to 69%); in data set [3] (D alone 12.5 g/ha), 7 (Growth inhibition rate; 70 to 79%); in data set [3] (D alone 25 g/ha), 9 (Growth inhibition rate; 90 to 98%). Besides, the “Herbicidal effects Tall Morningglory” value is recorded as 2 (Growth inhibition rate; 20 to 29%) in [4] (D alone 6.3 g/ha), 0 (Growth inhibition rate; 0 to 9%) in data set [4] (D alone 12.5 g/ha) and 5 (Growth inhibition rate; 50 to 59%) in data set [4] (D alone 25 g/ha).
Take `Oc1cc(Cl)nnc1Oc1cccc2ccoc12` [Example 191]: the “Herbicidal effects Broad leaf” value in [5] (chemical dosage 10 g/a) is recorded as 5 (Growth inhibition rate; 91 to 100%); in [5] (chemical dosage 20 g/a), 5 (Growth inhibition rate; 91 to 100%); in [11] (derivative 2.5 g/a), 3 (Growth inhibition rate; 56 to 75%). Besides, the “Herbicidal effects Cyperus serotinus” value in data set [6] (chemical dosage 10 g/a) is reported as 5 (Growth inhibition rate; 91 to 100%); in [6] (chemical dosage 20 g/a), 5 (Growth inhibition rate; 91 to 100%); in data set [9] (derivative 2.5 g/a), 5 (Growth inhibition rate; 96 to 100%). Besides, the “Herbicidal effects Barnyard grass” value in data set [7] (chemical dosage 10 g/a) is 4 (Growth inhibition rate; 71 to 90%); in data set [7] (chemical dosage 20 g/a), 5 (Growth inhibition rate; 91 to 100%); in data set [13] (derivative 2.5 g/a), 1 (Growth inhibition rate; 16 to 35%). The “Herbicidal effects Scirpus joncoides” value in [8] (chemical dosage 10 g/a) is reported as 5 (Growth inhibition rate; 91 to 100%); in data set [8] (chemical dosage 20 g/a), 5 (Growth inhibition rate; 91 to 100%); in data set [14] (derivative 2.5 g/a), 3 (Growth inhibition rate; 56 to 75%). In data set [10] (derivative 2.5 g/a), the “Herbicidal effects Eleocharis kuroguwai” value was 1 (Growth inhibition rate; 16 to 35%). Besides, the “Herbicidal effects Sagittaria pygmaea” value in data set [12] (derivative 2.5 g/a) is 2 (Growth inhibition rate; 36 to 55%). For the same molecule, the entries for the “Crop injury against transplanted rice” value in data set [15] (derivative 2.5 g/a), in [16] (chemical dosage 10 g/a) and in data set [16] (chemical dosage 20 g/a) were 0 (Growth-inhibition rate; 0 to 15%), 2 (Growth inhibition rate; 31 to 50%) and 5 (Growth inhibition rate; 91 to 100%), respectively.
With `Cc1cccc(I)c1Oc1nnc(Cl)cc1O` [Example 256], the “Herbicidal effects Broad leaf” value in data set [5] (chemical dosage 10 g/a) and in [5] (chemical dosage 20 g/a) was 5 (Growth inhibition rate; 91 to 100%) in each case. For the same molecule, the “Herbicidal effects Cyperus serotinus” value in data set [6] (chemical dosage 10 g/a) and in data set [6] (chemical dosage 20 g/a) was 5 (Growth inhibition rate; 91 to 100%) throughout. Besides, the “Herbicidal effects Barnyard grass” value in data set [7] (chemical dosage 10 g/a) was 3 (Growth inhibition rate; 51 to 70%); in data set [7] (chemical dosage 20 g/a), 4 (Growth inhibition rate; 71 to 90%). The “Herbicidal effects Scirpus joncoides” value in data set [8] (chemical dosage 10 g/a) and in data set [8] (chemical dosage 20 g/a) was 5 (Growth inhibition rate; 91 to 100%) each time. Moreover, the “Crop injury against transplanted rice” value in data set [16] (chemical dosage 10 g/a) is given as 2 (Growth inhibition rate; 31 to 50%); in data set [16] (chemical dosage 20 g/a), 3 (Growth inhibition rate; 51 to 70%). Besides, the “Herbicidal effects Barnyard-grass” value in [17] is given as 3 (Growth inhibition rate; 51 to 70%). Moreover, the “Herbicidal effects indian mustard” value in [18] is given as 5 (Growth inhibition rate; 91 to 100%).
Regarding `Cc1cc(C)c(C2CC2)c(Oc2nnc(Cl)cc2O)c1` [Example 288], the “Herbicidal effects Broad leaf” value is 5 (Growth inhibition rate; 91 to 100%) in data set [5] (chemical dosage 10 g/a), 5 (Growth inhibition rate; 91 to 100%) in [5] (chemical dosage 20 g/a), 5 (Growth inhibition rate; 96 to 100%) in data set [11] (derivative 5 g/a) and 5 (Growth inhibition rate; 96 to 100%) in data set [11] (derivative 10 g/a). The “Herbicidal effects Cyperus serotinus” value is recorded as 5 (Growth inhibition rate; 91 to 100%) in data set [6] (chemical dosage 10 g/a), 5 (Growth inhibition rate; 91 to 100%) in data set [6] (chemical dosage 20 g/a), 4 (Growth inhibition rate; 7.6 to 95%) in [9] (derivative 5 g/a) and 5 (Growth inhibition rate; 96 to 100%) in [9] (derivative 10 g/a). For the same molecule, the “Herbicidal effects Barnyard grass” value in data set [7] (chemical dosage 10 g/a) was 0 (Growth inhibition rate; 0 to 10%); in data set [7] (chemical dosage 20 g/a), 1 (Growth inhibition rate; 11 to 30%); in data set [13] (derivative 5 g/a), 0 (Growth-inhibition rate; 0 to 15%); in [13] (derivative 10 g/a), 0 (Growth-inhibition rate; 0 to 15%). Moreover, the “Herbicidal effects Scirpus joncoides” value is 5 (Growth inhibition rate; 91 to 100%) in data set [8] (chemical dosage 10 g/a), 5 (Growth inhibition rate; 91 to 100%) in [8] (chemical dosage 20 g/a), 5 (Growth inhibition rate; 96 to 100%) in data set [14] (derivative 5 g/a) and 5 (Growth inhibition rate; 96 to 100%) in [14] (derivative 10 g/a). Moreover, the entries for the “Herbicidal effects Eleocharis kuroguwai” value in data set [10] (derivative 5 g/a) and in data set [10] (derivative 10 g/a) were 2 (Growth inhibition rate; 36 to 55%) and 3 (Growth inhibition rate; 56 to 75%), respectively. For the same molecule, the “Herbicidal effects Sagittaria pygmaea” value in data set [12] (derivative 5 g/a) and in [12] (derivative 10 g/a) was 5 (Growth inhibition rate; 96 to 100%) in each case. Besides, the “Crop injury against transplanted rice” value is reported as 0 (Growth-inhibition rate; 0 to 15%) in [15] (derivative 5 g/a), 0 (Growth-inhibition rate; 0 to 15%) in data set [15] (derivative 10 g/a), 0 (Growth inhibition rate; 0 to 10%) in [16] (chemical dosage 10 g/a) and 0 (Growth inhibition rate; 0 to 10%) in data set [16] (chemical dosage 20 g/a).
`Oc1cc(Cl)nnc1Oc1c(Br)ccc2ccoc12` [Example 309]: the “Herbicidal effects Broad leaf” value in [5] (chemical dosage 10 g/a) and in [5] (chemical dosage 20 g/a) was 5 (Growth inhibition rate; 91 to 100%) throughout. The “Herbicidal effects Cyperus serotinus” value in data set [6] (chemical dosage 10 g/a) and in data set [6] (chemical dosage 20 g/a) was 5 (Growth inhibition rate; 91 to 100%) each time. Also, the “Herbicidal effects Barnyard grass” value in data set [7] (chemical dosage 10 g/a) is 4 (Growth inhibition rate; 71 to 90%); in [7] (chemical dosage 20 g/a) it was 5 (Growth inhibition rate; 91 to 100%). Also, the “Herbicidal effects Scirpus joncoides” value in data set [8] (chemical dosage 10 g/a) and in data set [8] (chemical dosage 20 g/a) was 5 (Growth inhibition rate; 91 to 100%) in each case. Moreover, the results for the “Crop injury against transplanted rice” value in data set [16] (chemical dosage 10 g/a) and in data set [16] (chemical dosage 20 g/a) were 2 (Growth inhibition rate; 31 to 50%) and 5 (Growth inhibition rate; 91 to 100%), respectively. The “Herbicidal effects Barnyard-grass” value in data set [17] was 5 (Growth inhibition rate; 91 to 100%). In addition, the “Herbicidal effects indian mustard” value in [18] is recorded as 5 (Growth inhibition rate; 91 to 100%).
